Assay results as given in ChEMBL document CHEMBL4689842, “EUbOPEN Chemogenomics Library wave 1” (2021).

How the values were obtained:
HEK-293T = assay: Incucyte cell viability with HEK293T; type: toxicity, cell-based; settings: human, 10 µM, compound concentration 10 uM
U2OS = assay: Incucyte cell viability with U2OS; type: toxicity, cell-based; settings: human, 10 µM, compound concentration 10 uM
[1] = 0 h, replicate number 1, timepoint 0 hours
[2] = 6 h, replicate number 1, timepoint 6 hours
[3] = 12 h, replicate number 1, timepoint 12 hours
[4] = 18 h, replicate number 1, timepoint 18 hours
[5] = 24 h, replicate number 1, timepoint 24 hours
[6] = 6 h, replicate number 2, timepoint 6 hours
[7] = 18 h, replicate number 2, timepoint 18 hours
[8] = 0 h, replicate number 2, timepoint 0 hours
[9] = 24 h, replicate number 2, timepoint 24 hours
[10] = 12 h, replicate number 2, timepoint 12 hours

Measured: Growth Rate
Note: filed as whole numbers so only -1 and 0 and 1 occur.

Cc1nc(N2CC[C@H](O)C2)ncc1-c1cc(C(F)(F)F)cc2[nH]ncc12
1: HEK-293T; [1] | U2OS; [1] | U2OS; [6] | U2OS; [3] | U2OS; [7]
0: HEK-293T; [2] | HEK-293T; [3] | HEK-293T; [4] | HEK-293T; [5] | U2OS; [2] | U2OS; [4] | U2OS; [5]

CC(C)Oc1ccccc1C(=O)Nc1ccccc1C(=O)Nc1cccc(S(=O)(=O)C(F)(F)F)c1
0: HEK-293T; [1] | HEK-293T; [2] | HEK-293T; [3] | HEK-293T; [4] | HEK-293T; [5] | U2OS; [1]
1: U2OS; [4] | U2OS; [5]

CNC(=O)Nc1ccc(-c2nc(N3CC4CCC(C3)O4)c3cnn(C4CCC5(CC4)OCCO5)c3n2)cc1
0: HEK-293T; [2] | HEK-293T; [3] | HEK-293T; [4] | HEK-293T; [5] | U2OS; [8] | U2OS; [3] | U2OS; [4] | U2OS; [5]
1: U2OS; [2] | U2OS; [7] | U2OS; [9]

CC1=C(C(=O)Nc2cc3cn[nH]c3cc2F)C(c2ccc(C(F)(F)F)cc2)CC(=O)N1 (centres undefined)
1: HEK-293T; [5] | U2OS; [4] | U2OS; [5]
0: HEK-293T; [1]

CCCSc1nc(N[C@@H]2C[C@H]2c2ccc(F)c(F)c2)c2nnn([C@@H]3C[C@H](OCCO)[C@@H](O)[C@H]3O)c2n1 [TICAGRELOR]
0: HEK-293T; [8] | HEK-293T; [2] | HEK-293T; [3] | HEK-293T; [4] | HEK-293T; [5] | U2OS; [1] | U2OS; [2] | U2OS; [3] | U2OS; [4] | U2OS; [5]

COc1ccc(-c2ccc3ncc4c(c3c2)n(-c2ccc(N3CCNCC3)c(C(F)(F)F)c2)c(=O)n4C)cn1.O=C(O)/C=C\C(=O)O [BGT-226]
0: HEK-293T; [2] | HEK-293T; [3] | HEK-293T; [4] | HEK-293T; [5] | U2OS; [1] | U2OS; [2] | U2OS; [3] | U2OS; [4] | U2OS; [5]

COc1ccccc1CN[C@H]1C2CCN(CC2)[C@H]1C(c1ccccc1)c1ccccc1 [CP-96345]
1: HEK-293T; [1] | U2OS; [6] | U2OS; [3] | U2OS; [4] | U2OS; [5]
0: HEK-293T; [8] | HEK-293T; [2] | HEK-293T; [3] | HEK-293T; [4] | HEK-293T; [5] | U2OS; [1]

CN1CCN(Cc2ccc(Nc3ncc(Cl)c(Nc4ccccc4S(=O)(=O)N(C)C)n3)cc2)CC1 [DUBERMATINIB]
0: HEK-293T; [1] | HEK-293T; [6] | HEK-293T; [10] | HEK-293T; [4] | HEK-293T; [5] | U2OS; [1] | U2OS; [3] | U2OS; [4] | U2OS; [5]
1: HEK-293T; [8] | HEK-293T; [3] | U2OS; [2]

CN1CCN(Cc2cc(NC(=O)c3ccc4c(c3)CN(c3ccccc3)CC4)cc(C(F)(F)F)c2)CC1
0: HEK-293T; [2] | HEK-293T; [3] | HEK-293T; [4] | HEK-293T; [5] | U2OS; [8] | U2OS; [2] | U2OS; [3] | U2OS; [4] | U2OS; [5]
1: U2OS; [1] | U2OS; [6]

CC(C)c1noc(N2CCC(COc3ccc(-c4ccc(S(C)(=O)=O)cc4)nc3)CC2)n1 [GSK-1292263]
0: HEK-293T; [8] | HEK-293T; [2] | HEK-293T; [3] | HEK-293T; [4] | HEK-293T; [5] | U2OS; [1]
1: U2OS; [10] | U2OS; [4] | U2OS; [5]

Cc1ccc2c(c1)c1c(n2CCc2ccc(C)nc2)CCN(C)C1 [LATREPIRDINE]
1: U2OS; [3] | U2OS; [5]
0: HEK-293T; [8] | HEK-293T; [2] | HEK-293T; [3] | HEK-293T; [4] | HEK-293T; [5] | U2OS; [1] | U2OS; [6] | U2OS; [4] | U2OS; [9]

CNC(=O)c1ccc(Nc2ncc(C(F)(F)F)c(NCc3nccnc3N(C)S(C)(=O)=O)n2)cc1 [DEFACTINIB]
0: HEK-293T; [2] | HEK-293T; [3] | HEK-293T; [4] | HEK-293T; [5] | U2OS; [1] | U2OS; [6] | U2OS; [3] | U2OS; [4] | U2OS; [5]
1: HEK-293T; [1] | U2OS; [8] | U2OS; [2]

CCc1ccc(OCc2ccccc2C(=O)Nc2ccc3nc(C)cc(N)c3c2)cc1.Cl
0: HEK-293T; [2] | HEK-293T; [3] | HEK-293T; [4] | HEK-293T; [5] | U2OS; [1] | U2OS; [2] | U2OS; [3] | U2OS; [4] | U2OS; [5]
